Test results taken from patent EP2970215B1, “PYRROLIDINE DERIVATIVES, PHARMACEUTICAL COMPOSITIONS CONTAINING THEM, AND THEIR USE IN THERAPY” (AbbVie Deutschland GmbH & Co. KG, priority 2013, dated 2014).

Target: T1, human GlyT1c transporter (Homo sapiens, UniProt P48067)
T1 construct: expressed in transfected cells; host or cells: CHO cells (recombinant; line hGlyT1c_5_CHO is named for the uptake assay)
T1 sequence (P48067 1-706): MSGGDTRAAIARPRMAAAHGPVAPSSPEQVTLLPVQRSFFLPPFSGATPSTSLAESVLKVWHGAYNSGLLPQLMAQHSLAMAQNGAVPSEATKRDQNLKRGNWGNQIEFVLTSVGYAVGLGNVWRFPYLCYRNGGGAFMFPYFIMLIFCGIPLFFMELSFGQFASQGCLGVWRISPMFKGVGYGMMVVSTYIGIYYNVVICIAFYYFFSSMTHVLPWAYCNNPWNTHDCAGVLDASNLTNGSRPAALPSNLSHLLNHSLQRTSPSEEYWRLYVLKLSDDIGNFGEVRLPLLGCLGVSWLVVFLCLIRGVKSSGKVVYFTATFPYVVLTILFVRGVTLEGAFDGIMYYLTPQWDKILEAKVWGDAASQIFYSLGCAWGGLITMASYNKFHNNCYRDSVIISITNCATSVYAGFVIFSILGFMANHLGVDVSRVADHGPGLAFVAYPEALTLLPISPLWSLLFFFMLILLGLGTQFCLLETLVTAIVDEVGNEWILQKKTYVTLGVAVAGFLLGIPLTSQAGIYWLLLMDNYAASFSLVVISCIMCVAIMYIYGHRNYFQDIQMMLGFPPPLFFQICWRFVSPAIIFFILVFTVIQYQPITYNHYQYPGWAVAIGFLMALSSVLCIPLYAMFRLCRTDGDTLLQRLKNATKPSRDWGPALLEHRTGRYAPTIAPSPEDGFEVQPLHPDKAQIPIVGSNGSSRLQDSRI
Assay: Radioligand binding assay using recombinant CHO cell membranes expressing human GlyT1
Details: radioligand binding to human GlyT1c transporter-expressing membranes
Description: 2. Radioligand binding assays using recombinant CHO cell membranes expressing human GlyT1: […]

Compound | Ki [nM]
COCCNC[C@@H]1CN(S(=O)(=O)c2cn(C)cn2)C[C@H]1c1ccc(F)cc1 (relative stereo) [Example 593, N-({trans-4-(4-fluorophenyl)-1-[(1-methyl-1H-imidazol-4-yl)sulfonyl]pyrrolidin-3-yl}methyl)-2-methoxyethanamine] | ≤ 10000
CCCNC[C@@H]1CN(S(=O)(=O)c2cn(C)cn2)C[C@H]1c1ccc(F)cc1 (relative stereo) [Example 594, N-({trans-4-(4-fluorophenyl)-1-[(1-methyl-1H-imidazol-4-yl)sulfonyl]pyrrolidin-3-yl}methyl)propan-1-amine] | ≤ 10000
CCCCNC[C@@H]1CN(S(=O)(=O)c2cn(C)cn2)C[C@H]1c1ccc(F)cc1 (relative stereo) [Example 595, N-({trans-4-(4-fluorophenyl)-1-[(1-methyl-1H-imidazol-4-yl)sulfonyl]pyrrolidin-3-yl}methyl)butan-1-amine] | ≤ 10000
CCCCCNC(=O)[C@@H]1CN(S(=O)(=O)c2cn(C)cn2)C[C@H]1c1ccc(F)cc1 (relative stereo) [Example 626, Trans-4-(4-fluorophenyl)-1-[(1-methyl-1H-imidazol-4-yl)sulfonyl]-N-pentylpyrrolidine-3-carboxamide] | ≤ 1000
CCCCCCNC(=O)[C@@H]1CN(S(=O)(=O)c2cn(C)cn2)C[C@H]1c1ccc(F)cc1 (relative stereo) [Example 627, Trans-4-(4-fluorophenyl)-N-hexyl-1-[(1-methyl-1H-imidazol-4-yl)sulfonyl]pyrrolidine-3-carboxamide] | ≤ 1000
Cn1cnc(S(=O)(=O)N2C[C@@H](C(=O)NCc3cccc(Cl)c3)[C@H](c3ccc(F)cc3)C2)c1 (relative stereo) [Example 628, Trans-N-(3-chlorobenzyl)-4-(4-fluorophenyl)-1-[(1-methyl-1H-imidazol-4-yl)sulfonyl]pyrrolidine-3-carboxamide] | ≤ 10
Cn1cnc(S(=O)(=O)N2C[C@@H](C(=O)NCc3ccc(F)c(F)c3)[C@H](c3ccc(F)cc3)C2)c1 (relative stereo) [Example 631, Trans-N-(3,4-difluorobenzyl)-4-(4-fluorophenyl)-1-[(1-methyl-1H-imidazol-4-yl)sulfonyl]pyrrolidine-3-carboxamide] | ≤ 10
Cn1cnc(S(=O)(=O)N2C[C@@H](C(=O)NCc3cccc(C(F)(F)F)c3)[C@H](c3ccc(F)cc3)C2)c1 (relative stereo) [Example 632, Trans-4-(4-fluorophenyl)-1-[(1-methyl-1H-imidazol-4-yl)sulfonyl]-N-[3-(trifluoromethyl)benzyl]pyrrolidine-3-carboxamide] | ≤ 1000
Cn1cnc(S(=O)(=O)N2C[C@@H](C(=O)NCc3cc(C(F)(F)F)ccc3Cl)[C@H](c3ccc(F)cc3)C2)c1 (relative stereo) [Example 633, Trans-N-[2-chloro-5-(trifluoromethyl)benzyl]-4-(4-fluorophenyl)-1-[(1-methyl-1H-imidazol-4-yl)sulfonyl]pyrrolidine-3-carboxamide] | ≤ 1000
Cn1cnc(S(=O)(=O)N2C[C@@H](C(=O)NCc3ccccn3)[C@H](c3ccc(F)cc3)C2)c1 (relative stereo) [Example 634, Trans-4-(4-fluorophenyl)-1-[(1-methyl-1H-imidazol-4-yl)sulfonyl] -N-(pyridin-2-ylmethyl)pyrrolidine-3-carboxamide] | ≤ 10000
CCCCN(CCCC)C(=O)[C@@H]1CN(S(=O)(=O)c2cn(C)cn2)C[C@H]1c1ccc(F)cc1 (relative stereo) [Example 636, Trans-N,N-dibutyl-4-(4-fluorophenyl)-1-[(1-methyl-1H-imidazol-4-yl)sulfonyl]pyrrolidine-3-carboxamide] | ≤ 1000
CC(C)CCCCCNC(=O)[C@@H]1CN(S(=O)(=O)c2cn(C)cn2)C[C@H]1c1ccc(F)cc1 (relative stereo) [Example 643, Trans-4-(4-fluorophenyl)-N-(6-methylheptyl)-1-[(1-methyl-1H-imidazol-4-yl)sulfonyl]pyrrolidine-3-carboxamide] | ≤ 10000
Cn1cnc(S(=O)(=O)N2C[C@@H](C(=O)NCc3cccc(OC(F)(F)F)c3)[C@H](c3ccc(F)cc3)C2)c1 (relative stereo) [Example 661, Trans-4-(4-fluorophenyl)-1-[(1-methyl-1H-imidazol-4-yl)sulfonyl]-N-[3-(trifluoromethoxy)benzyl]pyrrolidine-3-carboxamide] | ≤ 1000
Cn1cnc(S(=O)(=O)N2C[C@@H](Nc3cccc(C(F)(F)F)c3)[C@H](C3CCCCO3)C2)c1 (relative stereo) [Example 681, Trans-1-[(1-methyl-1H-imidazol-4-yl)sulfonyl]-4-(tetrahydro-2H-pyran-2-yl)-N-[3-(trifluoromethyl)phenyl]pyrrolidin-3-amine] | ≤ 10
Cn1cnc(S(=O)(=O)N2C[C@@H](Nc3cc(C(F)(F)F)ccn3)[C@H](C3CCCCO3)C2)c1 (relative stereo) [Example 682, N-{Trans-1-[(1-methyl-1H-imidazol-4-yl)sulfonyl]-4-[tetrahydro-2H-pyran-2-yl]pyrrolidin-3-yl}-4-(trifluoromethyl)pyridin-2-amine] | ≤ 100
Cn1cnc(S(=O)(=O)N2C[C@@H](Nc3cc(C(F)(F)F)ncn3)[C@H](C3CCCCO3)C2)c1 (relative stereo) [Example 687, N-[Trans-1-[(1-methyl-1H-imidazol-4-yl)sulfonyl]-4-(tetrahydro-2H-pyran-2-yl)pyrrolidin-3-yl]-6-(trifluoromethyl)pyrimidin-4-amine] | ≤ 100

More lines, now with the values ahead:

Ki [nM] | Compound
≤ 10000 | CCOCCCNC[C@@H]1CN(S(=O)(=O)c2cn(C)cn2)C[C@H]1c1ccc(F)cc1 (relative stereo) [Example 592, 3-ethoxy-N-({trans-4-(4-fluorophenyl)-1-[(1-methyl-1H-imidazol-4-yl)sulfonyl]pyrrolidin-3-yl}methyl)propan-1-amine]
≤ 10000 | COCCCNC[C@@H]1CN(S(=O)(=O)c2cn(C)cn2)C[C@H]1c1ccc(F)cc1 (relative stereo) [Example 597, N-({trans-4-(4-fluorophenyl)-1-[(1-methyl-1H-imidazol-4-yl)sulfonyl]pyrrolidin-3-yl}methyl)-3-methoxypropan-1-amine]
≤ 10000 | CCOCCNC[C@@H]1CN(S(=O)(=O)c2cn(C)cn2)C[C@H]1c1ccc(F)cc1 (relative stereo) [Example 598, 2-ethoxy-N-({trans-4-(4-fluorophenyl)-1-[(1-methyl-1H-imidazol-4-yl)sulfonyl]pyrrolidin-3-yl}methyl)ethanamine]
≤ 10000 | CC(C)OCCNC[C@@H]1CN(S(=O)(=O)c2cn(C)cn2)C[C@H]1c1ccc(F)cc1 (relative stereo) [Example 599, N-({trans-4-(4-fluorophenyl)-1-[(1-methyl-1H-imidazol-4-yl)sulfonyl]pyrrolidin-3-yl}methyl)-2-(propan-2-yloxy)ethanamine]
≤ 1000 | Cn1cnc(S(=O)(=O)N2C[C@@H](C(=O)NCc3ccc(Cl)cc3)[C@H](c3ccc(F)cc3)C2)c1 (relative stereo) [Example 629, Trans-N-(4-chlorobenzyl)-4-(4-fluorophenyl)-1-[(1-methyl-1H-imidazol-4-yl)sulfonyl]pyrrolidine-3-carboxamide]
≤ 100 | Cn1cnc(S(=O)(=O)N2C[C@@H](C(=O)NCc3ccc(F)cc3)[C@H](c3ccc(F)cc3)C2)c1 (relative stereo) [Example 630, Trans-N-(4-fluorobenzyl)-4-(4-fluorophenyl)-1-[(1-methyl-1H-imidazol-4-yl)sulfonyl]pyrrolidine-3-carboxamide]
≤ 1000 | Cn1cnc(S(=O)(=O)N2C[C@@H](C(=O)NCc3cc(C(F)(F)F)ccn3)[C@H](c3ccc(F)cc3)C2)c1 (relative stereo) [Example 635, Trans-4-(4-fluorophenyl)-1-[(1-methyl-1H-imidazol-4-yl)sulfonyl]-N-{[4-(trifluoromethyl)pyridin-2-yl]methyl}pyrrolidine-3-carboxamide]
≤ 10 | Cn1cnc(S(=O)(=O)N2C[C@@H](C(=O)NCc3ccc(F)c(Cl)c3)[C@H](c3ccc(F)cc3)C2)c1 (relative stereo) [Example 642, Trans-N-(3-chloro-4-fluorobenzyl)-4-(4-fluorophenyl)-1-[(1-methyl-1H-imidazol-4-yl)sulfonyl]pyrrolidine-3-carboxamide]
≤ 100 | Cn1cnc(S(=O)(=O)N2C[C@@H](NCc3ccc(C(F)(F)F)cc3Cl)[C@H](C3CCCCO3)C2)c1 (relative stereo) [Example 680, Trans-N-[2-chloro-4-(trifluoromethyl)benzyl]-1-[(1-methyl-1H-imidazol-4-yl)sulfonyl]-4-(tetrahydro-2H-pyran-2-yl)pyrrolidin-3-amine]
≤ 1000 | CCCNCCO[C@@H]1CN(S(=O)(=O)c2cn(C)cn2)C[C@H]1c1ccc(F)cc1 (relative stereo) [Example 688, N-[2-({Trans-4-(4-fluorophenyl)-1-[(1-methyl-1H-imidazol-4-yl)sulfonyl]pyrrolidin-3-yl}oxy)ethyl]propan-1-amine]
